One data set concerns Plasmodium falciparum. As to the kind of experiment: Antiprotozoal activity against erythrocytic stage of Plasmodium falciparum 3D7 incubated for 72 hrs by lactate dehydrogenase assay. The data set is classed as functional, organism-based. As to conditions: 3D7, 72 h.
Data set [1] relates to L6. Put plainly: Cytotoxicity against rat L6 cells assessed as decrease in cell viability at 10 to 40 uM incubated for 22 hrs by MTT assay. The data set is classed as cell-based. The note with it: l6, 22 h. Background: Tetrazolium assays rely on reduction of a dye to a coloured formazan, in cell work by metabolically active cells.
In data set [2] the test system is L6. As to the kind of experiment: Induction of glucose uptake in rat L6 cells incubated for 22 hrs in presence of glucose by microplate reader assay. It is filed as functional, cell-based.

SMILES strings stand for the structures.

In the data set on Plasmodium falciparum, `CCCC(=O)N(C)[C@@H](C)C(=O)N1CCC[C@H]1C(=O)N(C)[C@H](Cc1ccccc1)C(=O)N[C@@H](CC(C)C)C(=O)N(C)[C@@H](C(=O)N[C@H](C(=O)NCC(=O)N(C)[C@@H](Cc1ccccc1)C(=O)N1CCC[C@H]1C(=O)OC)C(C)C)C(C)C` registered a 50% inhibitory concentration (IC50) of 2.8 µM.

As to `CCCC(=O)N(C)[C@@H](C)C(=O)N1CCC[C@H]1C(=O)N(C)[C@@H](Cc1ccccc1)C(=O)N[C@@H](CC(C)C)C(=O)N(C)[C@@H](C(=O)N[C@H](C(=O)NCC(=O)N(C)[C@H](Cc1ccccc1)C(=O)N1CCC[C@H]1C(=O)OC)C(C)C)C(C)C` (stereo in doubt; form 1) [listing 1 of 2 here], the Activity entry in the data set with L6 [1] is recorded as “Non-Toxic”. This molecule also displayed a 50% inhibitory concentration (IC50) with Plasmodium falciparum of 1.4 µM.

Regarding `CCCC(=O)N(C)[C@@H](C)C(=O)N1CCC[C@H]1C(=O)N(C)[C@@H](Cc1ccccc1)C(=O)N[C@@H](CC(C)C)C(=O)N(C)[C@@H](C(=O)N[C@H](C(=O)NCC(=O)N(C)[C@H](Cc1ccccc1)C(=O)N1CCC[C@H]1C(=O)OC)C(C)C)C(C)C` (stereo in doubt; form 1) [listing 2 of 2 here], in the data set on L6 [2], the Activity entry is “Dose-dependent effect”.

On to `CCCC(=O)N(C)[C@@H](C)C(=O)N1CCC[C@H]1C(=O)N(C)[C@@H](Cc1ccccc1)C(=O)N[C@@H](CC(C)C)C(=O)N(C)[C@@H](C(=O)N[C@H](C(=O)NCC(=O)N(C)[C@H](Cc1ccccc1)C(=O)N1CCC[C@H]1C(=O)OC)C(C)C)C(C)C` (stereo in doubt; form 2), for which the Activity entry in the data set with L6 [2] was “Dose-dependent effect”.

By IC50 is commonly meant the concentration at which inhibition is half-maximal.

Values taken from ChEMBL document CHEMBL4414591, “Isolation and Total Synthesis of Mabuniamide, a Lipopeptide from an Okeania sp. Marine Cyanobacterium” (J Nat Prod, 2019).
